PMC4490784, “Compensatory induction of MYC expression by sustained CDK9 inhibition via a BRD4-dependent mechanism” (eLife, 2015)

Key:
Experiment in all cases: KINOMEscan binding assay
TEC = biological target: T1, TEC (Homo sapiens, UniProt P42680); details: read-out: % Retention on Solid Support
T1 construct: purchased DiscoveRx KINOMEscan
Experimental: (§1) As there are no commercial or in-house kinase assays available for CDK3, CDK5, CDK11 and CDK13, the inhibitory abilities of i-CDK9 toward these CDKs were thus evaluated in the DiscoveRx KINOMEscan assay, which is based on a proprietary active site-directed competition-binding platform ([Fabian et al., 2005]).
(§2) The inhibitory activity of i-CDK9 for CDK1-CycB (Upstate/Millipore), CDK2-CycA (Invitrogen), CDK4-CycD1 (Novartis), CDK7-CycH-MAT1 (Invitrogen), and CDK9-CycT1 (Invitrogen) was assessed in the AlphaScreen (PerkinElmer, Inc)-based kinase assay developed at Novartis. Briefly, each CDK–cyclin pair was pre-incubated with i-CDK9 for 15 min, followed by addition of kinase substrates (ELK for CDK1 and CDK2, RB for CDK4, and CDK7tide for CDK7 and CDK9). The mixture was incubated at room temperature for additional 4–5 hr. The reaction was stopped and read on Envision (PerkinElmer, Inc). Selectivity against a large panel of over 400 kinases was evaluated using the KINOMEscan platform (DiscoveRx, CA) employing a proprietary active site-directed competition binding assay ([Fabian et al., 2005]). The assay was conducted at two different concentrations of i-CDK9 (1 and 10 µM) by DiscoveRx.

PDGFRA = biological target: T2, PDGFRA (Homo sapiens, UniProt P16234); details: read-out: % Retention on Solid Support
T2 construct: purchased DiscoveRx KINOMEscan
Experimental: as §1, §2

TRKC = biological target: T3, TRKC (Homo sapiens, UniProt Q16288); details: read-out: % Retention on Solid Support
T3 construct: purchased DiscoveRx KINOMEscan
Experimental: as §1, §2

[1] = biological target: T4, EGFR(L747-E749del, A750P) (Homo sapiens, UniProt P00533, A750P/DEL747-749)
T4 construct: purchased DiscoveRx KINOMEscan
Experimental: as §1, §2

IGF1R = biological target: T5, IGF1R (Homo sapiens, UniProt P08069); details: read-out: % Retention on Solid Support
T5 construct: purchased DiscoveRx KINOMEscan
Experimental: as §1, §2

ERK3 = biological target: T6, ERK3 (Homo sapiens, UniProt Q16659); details: read-out: % Retention on Solid Support
T6 construct: purchased DiscoveRx KINOMEscan
Experimental: as §1, §2

NEK2 = biological target: T7, NEK2 (Homo sapiens, UniProt P51955); details: read-out: % Retention on Solid Support
T7 construct: purchased DiscoveRx KINOMEscan
Experimental: as §1, §2

S6K1 = S6K1 (Homo sapiens, UniProt P23443); details: 1 µM i-CDK9; read-out: % Retention on Solid Support
Experimental: as §1, §2

NEK9 = biological target: T8, NEK9 (Homo sapiens, UniProt Q8TD19); details: read-out: % Retention on Solid Support
T8 construct: purchased DiscoveRx KINOMEscan
Experimental: as §1, §2

MEK4 = biological target: T9, MEK4 (Homo sapiens, UniProt P45985); details: read-out: % Retention on Solid Support
T9 construct: purchased DiscoveRx KINOMEscan
Experimental: as §1, §2

ACVR2B = biological target: T10, ACVR2B (Homo sapiens, UniProt Q13705)
T10 construct: purchased DiscoveRx KINOMEscan
Experimental: as §1, §2

TIE1 = biological target: T11, TIE1 (Homo sapiens, UniProt P35590); details: read-out: % Retention on Solid Support
T11 construct: purchased DiscoveRx KINOMEscan
Experimental: as §1, §2

PRKCD = biological target: T12, PRKCD (Homo sapiens, UniProt Q05655); details: read-out: % Retention on Solid Support
T12 construct: purchased DiscoveRx KINOMEscan
Experimental: as §1, §2

DCAMKL2 = biological target: T13, DCAMKL2 (Homo sapiens, UniProt Q8N568); details: read-out: % Retention on Solid Support
T13 construct: purchased DiscoveRx KINOMEscan
Experimental: as §1, §2

RIPK4 = biological target: T14, RIPK4 (Homo sapiens, UniProt P57078); details: read-out: % Retention on Solid Support
T14 construct: purchased DiscoveRx KINOMEscan
Experimental: as §1, §2

MEK5 = biological target: T15, MEK5 (Homo sapiens, UniProt Q13163); details: 1 µM i-CDK9; read-out: % Retention on Solid Support
T15 construct: purchased DiscoveRx KINOMEscan
Experimental: as §1, §2

[2] = biological target: T16, ABL1(T315I)-nonphosphorylated (Homo sapiens, UniProt P00519, T315I); details: read-out: % Retention on Solid Support
T16 construct: purchased DiscoveRx KINOMEscan
Experimental: as §1, §2

CIT = biological target: T17, CIT (Homo sapiens, UniProt O14578)
T17 construct: purchased DiscoveRx KINOMEscan
Experimental: as §1, §2

[3] = biological target: T18, RPS6KA5(Kin.Dom.1-N-terminal) (Homo sapiens, UniProt O75582); details: read-out: % Retention on Solid Support
T18 construct: RPS6KA5(Kin.Dom.1-N-terminal); purchased DiscoveRx KINOMEscan
Experimental: as §1, §2

DMPK = biological target: T19, DMPK (Homo sapiens, UniProt Q09013); details: read-out: % Retention on Solid Support
T19 construct: purchased DiscoveRx KINOMEscan
Experimental: as §1, §2

EGFR(T790M) = biological target: T20, EGFR(T790M) (Homo sapiens, UniProt P00533, T790M); details: 1 µM i-CDK9
T20 construct: purchased DiscoveRx KINOMEscan
Experimental: as §1, §2

PIK3CA(E545K) = biological target: T21, PIK3CA(E545K) (Homo sapiens, UniProt P42336, E545K); details: read-out: % Retention on Solid Support
T21 construct: purchased DiscoveRx KINOMEscan
Experimental: as §1, §2

MEK6 = biological target: T22, MEK6 (Homo sapiens, UniProt P52564); details: read-out: % Retention on Solid Support
T22 construct: purchased DiscoveRx KINOMEscan
Experimental: as §1, §2

LATS2 = biological target: T23, LATS2 (Homo sapiens, UniProt Q9NRM7)
T23 construct: purchased DiscoveRx KINOMEscan
Experimental: as §1, §2

NDR1 = biological target: T24, NDR1 (Homo sapiens, UniProt Q15208); details: read-out: % Retention on Solid Support
T24 construct: purchased DiscoveRx KINOMEscan
Experimental: as §1, §2

[4] = biological target: T25, ABL1(H396P)-nonphosphorylated (Homo sapiens, UniProt P00519, H396P); details: read-out: % Retention on Solid Support
T25 construct: purchased DiscoveRx KINOMEscan
Experimental: as §1, §2

EPHA6 = biological target: T26, EPHA6 (Homo sapiens, UniProt Q9UF33); details: read-out: % Retention on Solid Support
T26 construct: purchased DiscoveRx KINOMEscan
Experimental: as §1, §2

[5] = biological target: T27, ABL1(E255K)-nonphosphorylated (Homo sapiens, UniProt P00519, E255K); details: 10 µM i-CDK9; read-out: % Retention on Solid Support
T27 construct: purchased DiscoveRx KINOMEscan
Experimental: as §1, §2

MST2 = biological target: T28, MST2 (Homo sapiens, UniProt Q13188); details: read-out: % Retention on Solid Support
T28 construct: purchased DiscoveRx KINOMEscan
Experimental: as §1, §2

T9 sequence (P45985 whole entry): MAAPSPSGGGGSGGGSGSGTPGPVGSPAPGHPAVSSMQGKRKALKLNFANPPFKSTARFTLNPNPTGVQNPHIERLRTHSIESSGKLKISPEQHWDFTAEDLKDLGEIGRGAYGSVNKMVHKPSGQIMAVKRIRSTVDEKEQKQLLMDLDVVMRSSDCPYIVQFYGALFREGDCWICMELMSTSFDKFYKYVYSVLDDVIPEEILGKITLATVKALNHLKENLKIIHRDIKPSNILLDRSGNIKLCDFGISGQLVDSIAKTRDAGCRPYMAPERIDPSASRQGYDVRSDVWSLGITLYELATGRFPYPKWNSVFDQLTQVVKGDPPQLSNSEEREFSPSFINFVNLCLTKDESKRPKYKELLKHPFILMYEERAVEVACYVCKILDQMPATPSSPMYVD
T21 sequence (P42336 whole entry E545K): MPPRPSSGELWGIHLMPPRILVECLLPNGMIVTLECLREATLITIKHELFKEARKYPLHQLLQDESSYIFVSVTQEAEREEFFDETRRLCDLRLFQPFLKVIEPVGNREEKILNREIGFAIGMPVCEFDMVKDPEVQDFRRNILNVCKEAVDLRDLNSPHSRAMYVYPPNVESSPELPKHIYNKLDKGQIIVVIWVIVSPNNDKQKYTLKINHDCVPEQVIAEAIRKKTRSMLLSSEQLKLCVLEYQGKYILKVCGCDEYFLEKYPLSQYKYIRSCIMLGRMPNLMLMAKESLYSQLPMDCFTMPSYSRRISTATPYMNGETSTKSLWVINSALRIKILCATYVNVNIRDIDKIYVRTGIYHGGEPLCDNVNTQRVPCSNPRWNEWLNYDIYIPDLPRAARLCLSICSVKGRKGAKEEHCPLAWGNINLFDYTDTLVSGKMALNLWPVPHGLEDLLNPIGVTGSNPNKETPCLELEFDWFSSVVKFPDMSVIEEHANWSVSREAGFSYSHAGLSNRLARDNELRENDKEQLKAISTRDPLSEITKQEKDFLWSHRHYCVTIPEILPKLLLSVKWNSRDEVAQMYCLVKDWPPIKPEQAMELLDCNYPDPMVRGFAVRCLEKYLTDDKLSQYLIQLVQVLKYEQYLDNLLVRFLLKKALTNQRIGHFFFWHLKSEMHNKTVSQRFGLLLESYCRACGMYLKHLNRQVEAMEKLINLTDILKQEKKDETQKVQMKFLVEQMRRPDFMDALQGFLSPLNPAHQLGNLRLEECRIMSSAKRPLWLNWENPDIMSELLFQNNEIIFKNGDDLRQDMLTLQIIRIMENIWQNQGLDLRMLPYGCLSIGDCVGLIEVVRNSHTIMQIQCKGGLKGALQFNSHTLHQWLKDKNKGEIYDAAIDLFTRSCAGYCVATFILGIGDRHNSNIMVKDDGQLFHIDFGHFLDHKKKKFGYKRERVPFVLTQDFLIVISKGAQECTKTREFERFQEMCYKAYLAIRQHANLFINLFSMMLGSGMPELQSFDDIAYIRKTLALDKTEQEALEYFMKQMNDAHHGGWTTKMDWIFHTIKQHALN
T19 sequence (Q09013 whole entry): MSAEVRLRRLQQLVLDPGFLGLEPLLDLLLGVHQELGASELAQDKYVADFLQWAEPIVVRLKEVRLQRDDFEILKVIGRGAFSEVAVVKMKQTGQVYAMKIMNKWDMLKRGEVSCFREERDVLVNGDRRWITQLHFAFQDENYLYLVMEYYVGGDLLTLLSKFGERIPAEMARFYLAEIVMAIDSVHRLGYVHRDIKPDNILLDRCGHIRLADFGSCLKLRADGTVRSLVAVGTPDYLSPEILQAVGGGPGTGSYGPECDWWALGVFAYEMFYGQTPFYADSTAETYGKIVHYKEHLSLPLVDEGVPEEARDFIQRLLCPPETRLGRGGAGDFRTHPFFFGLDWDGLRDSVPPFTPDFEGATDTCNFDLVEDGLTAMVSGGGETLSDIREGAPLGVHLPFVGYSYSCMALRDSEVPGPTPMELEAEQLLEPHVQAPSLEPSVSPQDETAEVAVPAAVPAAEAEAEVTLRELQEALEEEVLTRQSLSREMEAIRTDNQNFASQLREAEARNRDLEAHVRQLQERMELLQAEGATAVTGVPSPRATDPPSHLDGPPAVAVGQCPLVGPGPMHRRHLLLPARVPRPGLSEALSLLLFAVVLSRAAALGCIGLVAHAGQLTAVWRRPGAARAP
T2 sequence (P16234 24-1089): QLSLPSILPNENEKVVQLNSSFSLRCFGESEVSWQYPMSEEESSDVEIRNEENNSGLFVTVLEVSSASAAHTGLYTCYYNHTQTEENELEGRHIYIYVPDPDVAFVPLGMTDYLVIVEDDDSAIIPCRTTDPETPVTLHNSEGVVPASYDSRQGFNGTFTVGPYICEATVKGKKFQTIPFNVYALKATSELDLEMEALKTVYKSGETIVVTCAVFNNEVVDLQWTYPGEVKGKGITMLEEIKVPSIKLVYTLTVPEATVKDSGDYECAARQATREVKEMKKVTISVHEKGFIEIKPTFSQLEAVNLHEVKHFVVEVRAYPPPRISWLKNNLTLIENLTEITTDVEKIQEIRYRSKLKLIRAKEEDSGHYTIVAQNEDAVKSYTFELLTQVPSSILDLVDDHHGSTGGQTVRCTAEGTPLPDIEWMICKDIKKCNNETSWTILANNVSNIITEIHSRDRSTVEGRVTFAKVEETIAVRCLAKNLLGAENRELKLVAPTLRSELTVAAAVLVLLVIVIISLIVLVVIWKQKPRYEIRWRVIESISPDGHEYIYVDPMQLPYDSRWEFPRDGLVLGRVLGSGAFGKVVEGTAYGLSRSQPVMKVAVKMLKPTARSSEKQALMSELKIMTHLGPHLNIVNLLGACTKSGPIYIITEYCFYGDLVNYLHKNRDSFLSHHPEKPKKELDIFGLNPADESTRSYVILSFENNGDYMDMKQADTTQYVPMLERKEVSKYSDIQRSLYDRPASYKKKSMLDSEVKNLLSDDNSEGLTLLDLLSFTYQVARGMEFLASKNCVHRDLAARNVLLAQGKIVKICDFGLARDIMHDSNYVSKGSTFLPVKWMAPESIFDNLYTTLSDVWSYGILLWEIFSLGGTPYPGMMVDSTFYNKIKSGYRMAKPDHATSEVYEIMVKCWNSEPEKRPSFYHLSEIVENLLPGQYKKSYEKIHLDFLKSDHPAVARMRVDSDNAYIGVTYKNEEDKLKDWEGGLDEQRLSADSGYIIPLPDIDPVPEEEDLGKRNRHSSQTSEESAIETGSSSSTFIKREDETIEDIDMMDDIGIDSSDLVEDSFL
T5 sequence (P08069 31-1367): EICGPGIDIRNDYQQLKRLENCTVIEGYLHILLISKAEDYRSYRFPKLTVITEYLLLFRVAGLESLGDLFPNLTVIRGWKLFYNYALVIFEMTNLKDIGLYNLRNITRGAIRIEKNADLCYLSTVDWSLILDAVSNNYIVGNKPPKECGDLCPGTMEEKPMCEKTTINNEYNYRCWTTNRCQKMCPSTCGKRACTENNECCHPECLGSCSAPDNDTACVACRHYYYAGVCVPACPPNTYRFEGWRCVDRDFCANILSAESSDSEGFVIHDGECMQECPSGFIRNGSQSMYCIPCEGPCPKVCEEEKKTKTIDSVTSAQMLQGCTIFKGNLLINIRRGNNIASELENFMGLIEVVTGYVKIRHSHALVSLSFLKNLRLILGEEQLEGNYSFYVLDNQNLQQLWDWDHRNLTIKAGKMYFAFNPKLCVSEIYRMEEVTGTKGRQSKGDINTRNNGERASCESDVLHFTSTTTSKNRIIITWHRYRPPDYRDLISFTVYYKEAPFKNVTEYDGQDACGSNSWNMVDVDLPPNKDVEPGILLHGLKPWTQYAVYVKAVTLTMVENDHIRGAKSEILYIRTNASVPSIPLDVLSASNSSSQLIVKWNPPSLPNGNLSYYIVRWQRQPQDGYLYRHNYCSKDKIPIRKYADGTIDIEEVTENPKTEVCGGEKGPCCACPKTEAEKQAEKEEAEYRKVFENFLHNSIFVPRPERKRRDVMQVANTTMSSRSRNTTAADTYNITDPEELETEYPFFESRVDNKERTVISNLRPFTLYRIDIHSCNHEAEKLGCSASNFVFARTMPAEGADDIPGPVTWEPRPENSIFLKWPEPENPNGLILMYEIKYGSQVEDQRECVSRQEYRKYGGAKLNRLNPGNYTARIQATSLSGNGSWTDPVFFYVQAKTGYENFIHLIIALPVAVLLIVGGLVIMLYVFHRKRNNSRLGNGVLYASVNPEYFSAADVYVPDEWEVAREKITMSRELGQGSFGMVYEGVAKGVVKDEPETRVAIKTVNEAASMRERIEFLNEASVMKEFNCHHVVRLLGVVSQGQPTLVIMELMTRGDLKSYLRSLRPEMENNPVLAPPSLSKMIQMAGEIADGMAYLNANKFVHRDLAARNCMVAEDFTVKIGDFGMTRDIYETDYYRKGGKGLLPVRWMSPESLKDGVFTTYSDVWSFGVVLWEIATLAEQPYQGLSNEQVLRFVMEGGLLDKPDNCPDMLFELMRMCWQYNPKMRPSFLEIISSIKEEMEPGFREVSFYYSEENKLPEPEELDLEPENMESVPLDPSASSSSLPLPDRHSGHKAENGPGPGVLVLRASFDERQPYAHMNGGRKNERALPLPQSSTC
T28 sequence (Q13188 whole entry): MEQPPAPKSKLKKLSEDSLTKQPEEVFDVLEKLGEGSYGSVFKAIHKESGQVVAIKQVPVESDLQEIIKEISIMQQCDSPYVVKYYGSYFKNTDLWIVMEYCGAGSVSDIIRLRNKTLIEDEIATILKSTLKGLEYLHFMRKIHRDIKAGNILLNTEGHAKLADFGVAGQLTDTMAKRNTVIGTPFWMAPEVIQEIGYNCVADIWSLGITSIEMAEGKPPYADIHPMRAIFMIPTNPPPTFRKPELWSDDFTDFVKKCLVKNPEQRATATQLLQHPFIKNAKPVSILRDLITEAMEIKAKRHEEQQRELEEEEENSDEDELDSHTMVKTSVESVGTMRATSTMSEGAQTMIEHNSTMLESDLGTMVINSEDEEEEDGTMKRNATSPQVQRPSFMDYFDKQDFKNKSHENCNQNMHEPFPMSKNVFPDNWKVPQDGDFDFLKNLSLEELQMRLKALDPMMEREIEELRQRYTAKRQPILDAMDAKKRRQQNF

N[C@H]1CC[C@H](Nc2cc(-c3cccc(NCc4cccc(F)c4)n3)c(Cl)cn2)CC1 [i-CDK9, N2′-(trans-4-aminocyclohexyl)-5′-chloro-N6-(3-fluorobenzyl)-2,4′-bipyridine-2′,6-diamine]
remaining binding at 1 µM (TEC; 1 µM i-CDK9): 99%
remaining binding at 10 µM (TEC; 10 µM i-CDK9): 100%
remaining binding at 1 µM (PDGFRA; 1 µM i-CDK9): 59%
remaining binding at 10 µM (PDGFRA; 10 µM i-CDK9): 88%
remaining binding at 1 µM (TRKC; 1 µM i-CDK9): 63%
remaining binding at 10 µM (TRKC; 10 µM i-CDK9): 95%
% Retention on Solid Support ([1]; 1 µM i-CDK9): 46%
% Retention on Solid Support ([1]; 10 µM i-CDK9): 85%
remaining binding at 1 µM (IGF1R; 1 µM i-CDK9): 94%
remaining binding at 10 µM (IGF1R; 10 µM i-CDK9): 100%
remaining binding at 1 µM (ERK3; 1 µM i-CDK9): 94%
remaining binding at 10 µM (ERK3; 10 µM i-CDK9): 94%
remaining binding at 1 µM (NEK2; 1 µM i-CDK9): 77%
remaining binding at 10 µM (NEK2; 10 µM i-CDK9): 100%
remaining binding at 1 µM (S6K1): 100%
remaining binding at 1 µM (NEK9; 1 µM i-CDK9): 100%
remaining binding at 10 µM (NEK9; 10 µM i-CDK9): 100%
remaining binding at 1 µM (MEK4; 1 µM i-CDK9): 39%
remaining binding at 10 µM (MEK4; 10 µM i-CDK9): 97%
% Retention on Solid Support (ACVR2B; 1 µM i-CDK9): 100%
% Retention on Solid Support (ACVR2B; 10 µM i-CDK9): 85%
remaining binding at 1 µM (TIE1; 1 µM i-CDK9): 85%
remaining binding at 10 µM (TIE1; 10 µM i-CDK9): 100%
remaining binding at 1 µM (PRKCD; 1 µM i-CDK9): 98%
remaining binding at 10 µM (PRKCD; 10 µM i-CDK9): 70%
remaining binding at 1 µM (DCAMKL2; 1 µM i-CDK9): 100%
remaining binding at 10 µM (DCAMKL2; 10 µM i-CDK9): 65%
remaining binding at 1 µM (RIPK4; 1 µM i-CDK9): 53%
remaining binding at 10 µM (RIPK4; 10 µM i-CDK9): 100%
remaining binding at 1 µM (MEK5): 100%
remaining binding at 1 µM ([2]; 1 µM i-CDK9): 100%
remaining binding at 10 µM ([2]; 10 µM i-CDK9): 83%
% Retention on Solid Support (CIT; 1 µM i-CDK9): 60%
% Retention on Solid Support (CIT; 10 µM i-CDK9): 8.2%
remaining binding at 1 µM ([3]; 1 µM i-CDK9): 79%
remaining binding at 10 µM ([3]; 10 µM i-CDK9): 100%
remaining binding at 1 µM (DMPK; 1 µM i-CDK9): 100%
remaining binding at 10 µM (DMPK; 10 µM i-CDK9): 20%
% Retention on Solid Support (EGFR(T790M)): 100%
remaining binding at 1 µM (PIK3CA(E545K); 1 µM i-CDK9): 100%
remaining binding at 10 µM (PIK3CA(E545K); 10 µM i-CDK9): 95%
remaining binding at 1 µM (MEK6; 1 µM i-CDK9): 96%
remaining binding at 10 µM (MEK6; 10 µM i-CDK9): 100%
% Retention on Solid Support (LATS2; 1 µM i-CDK9): 100%
% Retention on Solid Support (LATS2; 10 µM i-CDK9): 100%
remaining binding at 1 µM (NDR1; 1 µM i-CDK9): 100%
remaining binding at 10 µM (NDR1; 10 µM i-CDK9): 88%
remaining binding at 1 µM ([4]; 1 µM i-CDK9): 45%
remaining binding at 10 µM ([4]; 10 µM i-CDK9): 97%
remaining binding at 1 µM (EPHA6; 1 µM i-CDK9): 100%
remaining binding at 10 µM (EPHA6; 10 µM i-CDK9): 91%
remaining binding at 10 µM [5]: 100%
remaining binding at 1 µM (MST2; 1 µM i-CDK9): 72%
remaining binding at 10 µM (MST2; 10 µM i-CDK9): 100%
